Source: US20030027835A1 (priority 1999, published 2003)
Counter-ions that a name gives are not always drawn.

Tests used:
[1] = tested on: PGE2-induced hyperalgesia; assay: PGE2-induced hyperalgesia in the rat (Randall and Selitto test)
[2] = tested on: rabbit corneal reflex; assay: corneal reflex testing in rabbits (local anesthetic effect); type: in vivo
Excerpt: FIG. 4: Local anesthetic effect of TMB (A) and lidocaine (B) as determined in the rabbit corneal reflex. The values represent the median of percentage of inhibition of corneal reflex calculated for each set of 10 stimulations. The x axis represents time (in minutes) following instillations.*P<0.05; **P<0.01 compared with the control group treated with the vehicle (Mann-Whitney U test).
White New-Zealand male rabbits (CEGAV, Les Hauts Noës, Saint Mars d'Egrenne, France) weighing 1.9-2.7 kg were used. Animals were housed individually in cages placed in an air-conditioned (17-21° C.) animal house kept between 45% and 65% relative humidity and with an artificial day/night cycle (12 h-12 h) with light on at 7.30 am.
Test substances are administered as solutions in sterile water (Baxter, Maurepas, France). The concentrations of test substances are expressed as percentage (weight/volume) of active compound (base form). Each test substance at each concentration is tested on the two eyes of 5 animals (i.e. 10 measurements per substance and per concentration). On the day of the study, animals are placed in restraint cages in a quiet room. Twenty to 30 minutes later, a first measurement of the corneal sensitivity is performed. Any animal presenting a partial or complete corneal insensitivity or any ocular lesion before administration is excluded from the study. Immediately after the first measurement, 2×50 μl of test substances or their vehicle are applied to the cornea. The two instillations were undertaken on each eye at a one-minute interval. Corneal sensitivity is subsequently measured at 5, 10, 20, 30, 40, 50 and 60 minutes following the instillations, and then at 2, 3 and 4 hours after the instillations. Corneal sensitivity is measured by touching gently the center of the cornea with a loop-shape nylon yarn (0.3 mm diameter). For each measurement, this operation is repeated 10 times at regular 2 second intervals. The number of stimulations producing a corneal reflex is noted for each set and for each eye.
Results are expressed as percentage of inhibition of the corneal reflex calculated for each set of 10 stimulations:
% inhibition of corneal reflex=10-(number of stimulations inducing a corneal reflex)×10
For each experimental group, median values are determined. The effects of test compounds are compared with those of the vehicle using a Mann-Withney non-parametric U test at each time of measurement. Areas under curves are calculated over the first 60-minute period following instillation for each animal and each concentration by the trapezoidal method of Bourget et al., 1993. The relative potency of TMB) is compared to that of lidocaine hydrochloride from respective mean areas under curves using a covariance analysis.

[3] = tested on: sodium currents in rat dorsal root ganglia (DRG) neurons; type: cell-based

Question: With `CCC(COC(=O)c1cc(OC)c(OC)c(OC)c1)(c1ccccc1)N(C)C.O=C(O)/C=C\C(=O)O` (racemic) [Trimebutine, 2-dimethylamino-2-phenylbutyl 3,4,5-trimethoxybenzoate hydrogen maleate] as the molecule, how does the “% of analgesic activity” value ([1]; Trimebutine 100 mg/kg s.c. (T2 of FIG. 5)) read?
Answer: The value was 27%.

Question: And the “duration of local anesthetic effect” value ([2]; 0.1% concentration)?
Answer: Its value is 20 min.

Question: What about the “potency relative to lidocaine” value ([2]; comparison of areas under the curve over first 60 min) of the same molecule?
Answer: Its value is 17 fold.

Question: And the “duration of complete local anesthesia” value ([2]; instillation of 0.3% or 1%)?
Answer: The value was “more than 60 min”.

Question: And the “concentration giving first significant local anesthetic effects” value ([2]; rabbit cornea, instillation)?
Answer: Its value is 0.1%.

Question: And the blocking rate kon [3]?
Answer: The blocking rate kon was 35-40 10^−3 s^−1 μM^−1.

Question: With `CN1CC[C@]23c4c5ccc(O)c4O[C@H]2[C@@H](O)C=C[C@H]3[C@H]1C5` [Morphine, morphine] as the molecule, how does the “% of analgesic activity” value ([1]; Morphine 0.3 mg/kg s.c., 30 min before test (T1 of FIG. 5)) read?
Answer: Its value is 22%.

Question: And the “% of analgesic activity” value ([1]; Morphine 3 mg/kg s.c. (M3 of FIG. 6))?
Answer: The value was 64%.

Question: How did the “duration of complete local anesthetic effect” value ([2]; 6% concentration) turn out when `CCN(CC)CC(=O)Nc1c(C)cccc1C` [lidocaine, lidocaine hydrochloride] was run?
Answer: Its value is 25 min.

Question: What about the “inhibition of corneal reflex” value ([2]; 6% concentration, 60 min after instillation) of the same molecule?
Answer: Its value is “no more inhibition”.

Question: What about the “local anesthetic activity” value ([2]; up to the concentration of 0.3%) of the same molecule?
Answer: Its value is “inactive”.
